# Results from ChEMBL document CHEMBL5257050, “Structure Revisions of Phenolic Bisabolane Sesquiterpenes and a Ferroptosis Inhibitor from the Marine-Derived Fungus Aspergillus versicolor YPH93” (J Nat Prod, 2023).
# Activity calls are given as the source filed them. The calls are words filed in the database; no cut-off is given here.
# How the values were obtained:
# HT-1080 [1] = assay: Cytotoxicity against human HT-1080 cells assessed as reduction in cell viability at 50 uM measured for 48 hrs by CCK-8 assay; type: functional, cell-based
# [2] = Antioxidant activity assessed as DPPH radical scavenging activity at 10 uM measured for 30 mins relative to control; type: functional
# CCRF-CEM [3] = assay: Anti-necroptosis activity against TNFalpha-induced human CCRF-CEM cells assessed as cell viability at 10 uM pretreated for 0.5 hrs followed by TNFalpha stimulation by Cell-titer-glo assay; type: functional, cell-based
# CCRF-CEM [4] = assay: Induction of necrosis in H2O2-induced human CCRF-CEM cells at 10 uM pretreated for 0.5 hrs followed by H2O2 stimulation by Cell-titer-glo assay; type: functional, cell-based
# HT-1080 [5] = assay: Anti-ferroptotic activity against erastin-induced ferroptosis in human HT-1080 cells assessed as cell viability at 10 uM pretreated for 0.5 hrs followed by erastin stimulation by Cell-titer-glo assay; type: functional; details: read-out: Activity
# HT-1080 [6] = assay: Anti-ferroptotic activity against erastin/RSL3-induced ferroptosis in human HT-1080 cells assessed as cell viability at 1 uM pretreated for 0.5 hrs followed by erastin/RSL3 stimulation by Cell-titer-glo assay; type: functional, cell-based
# HT-1080 [7] = assay: Anti-ferroptotic activity against erastin/RSL3-induced ferroptosis in human HT-1080 cells assessed as cell viability at 10 uM pretreated for 0.5 hrs followed by erastin/RSL3 stimulation by Cell-titer-glo assay; type: functional, cell-based
# HT-1080 [8] = assay: Anti-ferroptotic activity against erastin-induced ferroptosis in human HT-1080 cells assessed as cell viability pretreated for 0.5 hrs followed by erastin stimulation by Cell-titer-glo assay; type: functional, cell-based
# HT-1080 [9] = assay: Anti-ferroptotic activity against RSL3-induced ferroptosis in human HT-1080 cells assessed as cell viability pretreated for 0.5 hrs followed by RSL3 stimulation by Cell-titer-glo assay; type: functional, cell-based
# CCRF-CEM [10] = assay: Anti-ferroptotic activity against RSL3-induced ferroptosis in human CCRF-CEM cells assessed as cell viability at 10 uM pretreated for 0.5 hrs followed by RSL3 stimulation by Cell-titer-glo assay; type: functional, cell-based
Compound,Activity (HT-1080 [1]),Activity [2],Activity (CCRF-CEM [3]),Activity (CCRF-CEM [4]),viability at 10 µM (HT-1080 [5]) [%],Activity (HT-1080 [6]),Activity (HT-1080 [7]),EC50 (HT-1080 [8]) [nM],EC50 (HT-1080 [9]) [nM],Activity (CCRF-CEM [10])
CC1(c2ccc(C(=O)O)cc2O)CCC(=O)O1 (stereo not given),inactive,Active,inactive,inactive,,,,,,
C[C@]1(c2ccc(C(=O)O)cc2O)CC[C@H](O)[C@](C)(CO)O1 (relative stereo),inactive,Active,inactive,inactive,,,,,,
CC(=O)OC[C@@]1(C)CCC[C@](C)(c2ccc(C(=O)O)cc2O)O1 (relative stereo),inactive,Active,inactive,inactive,,,,,,
CC1(C)O[C@@](C)(c2ccc(C(=O)O)cc2O)[C@H](O)C[C@@H]1O (relative stereo),inactive,Active,inactive,inactive,,,,,,
CC1(C)O[C@@](C)(c2ccc(C(=O)O)cc2O)C[C@H](O)[C@@H]1O (relative stereo),inactive,Active,inactive,inactive,,,,,,
CC(CCCC(C)(O)c1ccc(C(=O)O)cc1O)C(=O)O (stereo not given),inactive,Active,inactive,inactive,,,,,,
C[C@@]1(CO)CCC[C@](C)(c2ccc(C(=O)O)cc2O)O1 (relative stereo),inactive,Active,inactive,inactive,,,,,,
CC(=O)OC[C@@]1(C)CCC[C@@](C)(c2ccc(C(=O)O)cc2O)O1,inactive,Active,inactive,inactive,50,,,,,
CC(O)(CO)CCCC(C)(O)c1ccc(C(=O)O)cc1O (stereo not given),inactive,Active,inactive,inactive,,,,,,
CC1(C)CCC[C@](C)(c2ccc(C(=O)O)cc2O)O1,inactive,Active,inactive,inactive,,,,,,
CCOC(=O)c1ccc(NC2CCCCC2)c(N)c1,,Active,,,,Active,,,,
C/C(=C\CCC(C)(O)CO)c1ccc(C(=O)O)cc1O (stereo not given),inactive,Active,inactive,inactive,,,Active,3400,2100,Active
CC(C)(O)CCCC(C)(O)c1ccc(C(=O)O)cc1O (stereo not given),inactive,Active,inactive,inactive,,,,,,
C[C@]1(CO)CCC[C@](C)(c2ccc(C(=O)O)cc2O)O1,inactive,Active,inactive,inactive,,,,,,
CC1(C)O[C@@](C)(c2ccc(C(=O)O)cc2O)C[C@H](O)[C@H]1O (relative stereo),inactive,Active,inactive,inactive,,,,,,
CC(=O)OCC(C)(O)CCCC(C)(O)c1ccc(C(=O)O)cc1O (stereo not given),inactive,Active,inactive,inactive,,,,,,
Cc1cccc(O)c1-c1cc(O)c(C)c(=O)o1,inactive,Active,inactive,inactive,,,,,,
C/C(=C/CCC(C)(C)O)c1ccc(C(=O)O)cc1O,inactive,Active,inactive,inactive,,,,,,
